{"source": "PubChem BioAssay AID1259408", "about": "(Genetic Toxicology Data Bank (GENE-TOX), 2018)", "system": "GENE-TOX genotoxicity assays, various organisms and cells", "experiment": "GENE-TOX mutagenicity studies", "settings": "for call: Assay Type: In vivo carcinogenicity studies", "key": {"[1]": {"settings": "Species/Cell Type: Syrian hamster embryo (SA7/SHE) cells, Assay Type: Cell transformation, viral enhanced, Assay Code: CT7+, Evaluation Type: Evaluation A (Pre-1980)"}, "[2]": {"settings": "Species/Cell Type: Salmonella typhimurium (one or more of the five standard strains: TA98, TA100, TA1535, TA1537, and TA1538), Assay Type: Histidine reverse gene mutation, Ames assay, Assay Code: SAL+, Evaluation Type: Evaluation A (Pre-1980)"}, "[3]": {"settings": "Species/Cell Type: Salmonella typhimurium (one or more of the five standard strains: TA98, TA100, TA1535, TA1537, and TA1538), Assay Type: Histidine reverse gene mutation, Ames assay, Assay Code: SALT, Evaluation Type: Evaluation A (Pre-1980)"}}, "note": "Activity calls are given as the source filed them. How the calls were made is not given here."}
{"molecule": "Nc1ccc(N)cc1", "values": [{"measurement": "mutagenic call", "setting": "Species/Cell Type: Allium cepa, Assay Type: Chromosome aberrations, Assay Code: ALC+, Evaluation Type: Evaluation A (Pre-1980)", "result": "active; positive"}, {"measurement": "mutagenic call", "setting": "Species/Cell Type: Drosophila melanogaster, Assay Type: Sex-linked recessive lethal gene mutation, Assay Code: SRL+, Evaluation Type: Evaluation A (Pre-1980)", "result": "active; positive"}, {"measurement": "mutagenic call", "setting": "Species/Cell Type: Fischer rat embryo (RLV/1706) cells, Assay Type: Cell transformation, viral enhanced, Assay Code: CTR+, Evaluation Type: Evaluation A (Pre-1980)", "result": "active; positive"}, {"measurement": "mutagenic call", "setting": "Species/Cell Type: Mammalian polychromatic erythrocytes, Assay Type: Micronucleus test, chromosome aberrations, Assay Code: MNTT, Evaluation Type: Evaluation A (Pre-1980)", "result": "no conclusion"}, {"measurement": "mutagenic call", "setting": "Species/Cell Type: Mouse, Sex: Male, Assay Type: Sperm morphology, Assay Code: SPI-, Evaluation Type: Evaluation A (Pre-1980)", "result": "inactive; negative"}, {"measurement": "mutagenic call", "setting": "Species/Cell Type: Neurospora crassa, Assay Type: Aneuploidy, chromosome aberrations, Assay Code: NEN-, Evaluation Type: Evaluation A (Pre-1980)", "result": "inactive; negative"}, {"measurement": "call", "setting": "Species/Cell Type: Nonhuman, Assay Code: CCG-, Evaluation Type: Evaluation A (Pre-1980)", "result": "inactive; negative"}, {"measurement": "mutagenic call", "setting": "Species/Cell Type: Rodents, Sex: Male, Assay Type: Dominant lethal test, Assay Code: DLT-, Evaluation Type: Evaluation A (Pre-1980)", "result": "inactive; negative"}, {"measurement": "mutagenic call", "setting": "[1]", "result": "active; positive"}]}
{"molecule": "CCCCN(COC(C)=O)N=O", "values": [{"measurement": "mutagenic call", "setting": "[2]", "result": "active; positive"}, {"measurement": "mutagenic call", "setting": "Species/Cell Type: Syrian hamster embryo (SHE) cells, Assay Type: Cell transformation, clonal assay, Assay Code: CTC+, Evaluation Type: Evaluation A (Pre-1980)", "result": "active; positive"}]}
{"molecule": "Clc1cccc(C2CO2)c1", "note": "(stereo not drawn)", "values": [{"measurement": "mutagenic call", "setting": "Species/Cell Type: Escherichia coli WP2 UVRA, Assay Type: Tryptophan reverse gene mutation, Assay Code: WPU+D, Dose Response: With dose response, Evaluation Type: Evaluation A (Pre-1980)", "result": "active; positive"}, {"measurement": "mutagenic call", "setting": "[3]", "result": "no conclusion"}]}
{"molecule": "O=C(O)Cc1ccccc1[N+](=O)[O-]", "values": [{"measurement": "mutagenic call", "setting": "[2]", "result": "active; positive"}]}
{"molecule": "c1ccc2nc3ccccc3cc2c1", "values": [{"measurement": "mutagenic call", "setting": "Species/Cell Type: Saccharomyces cerevisiae, Assay Type: Forward gene mutation, Assay Code: YEFT, Evaluation Type: Evaluation A (Pre-1980)", "result": "no conclusion"}]}
{"molecule": "OC(O)C(F)(F)F", "values": [{"measurement": "mutagenic call", "setting": "[3]", "result": "no conclusion"}]}
{"molecule": "Cc1ccccc1S(N)(=O)=O", "values": [{"measurement": "mutagenic call", "setting": "Species/Cell Type: Drosophila melanogaster, Assay Type: Sex-linked recessive lethal gene mutation, Assay Code: SRLT, Evaluation Type: Evaluation A (Pre-1980)", "result": "no conclusion"}, {"measurement": "mutagenic call", "setting": "Species/Cell Type: Mammalian polychromatic erythrocytes, Assay Type: Micronucleus test, chromosome aberrations, Assay Code: MNTT, Evaluation Type: Evaluation B (Post-1980)", "result": "no conclusion"}, {"measurement": "mutagenic call", "setting": "Species/Cell Type: Salmonella typhimurium (one or more of the five standard strains: TA98, TA100, TA1535, TA1537, and TA1538), Assay Type: Histidine reverse gene mutation, Ames assay, Assay Code: SAL-, Evaluation Type: Evaluation A (Pre-1980)", "result": "inactive; negative"}]}
{"molecule": "CCCCNC(N)=O", "values": [{"measurement": "mutagenic call", "setting": "Species/Cell Type: Nonhuman, Assay Type: Chromosome aberrations in vitro, Assay Code: CY&-, Evaluation Type: Evaluation A (Pre-1980)", "result": "inactive; negative"}, {"measurement": "mutagenic call", "setting": "Species/Cell Type: Nonhuman, Assay Type: Sister-chromatid exchange (SCE) in vitro, Assay Code: SC2+, Evaluation Type: Evaluation A (Pre-1980)", "result": "active; positive"}]}
{"molecule": "Oc1cccc2c1cc1ccc3cccc4ccc2c1c34", "values": [{"measurement": "mutagenic call", "setting": "Species/Cell Type: Chinese hamster lung (V79) cells, Assay Type: Forward gene mutation at the HPRT or ouabain locus, Assay Code: V79-*, Activation: With metabolic activation, Evaluation Type: Evaluation A (Pre-1980)", "result": "inactive; negative"}, {"measurement": "call", "setting": "Species/Cell Type: Nonhuman, Assay Code: CCGT, Evaluation Type: Evaluation A (Pre-1980)", "result": "no conclusion"}, {"measurement": "mutagenic call", "setting": "[3]", "result": "no conclusion"}]}
{"molecule": "CC(=O)Nc1ccc(CC(=O)c2ccccc2)cc1", "values": [{"measurement": "mutagenic call", "setting": "[3]", "result": "no conclusion"}]}
{"molecule": "CCNc1nc(Cl)nc(NCC)n1", "values": [{"measurement": "mutagenic call", "setting": "Species/Cell Type: Drosophila melanogaster, Assay Type: Aneuploidy, partial sex chromosome loss, chromosome aberrations, Assay Code: DAPT, Evaluation Type: Evaluation A (Pre-1980)", "result": "no conclusion"}, {"measurement": "mutagenic call", "setting": "Species/Cell Type: Drosophila melanogaster, Assay Type: Aneuploidy, sex chromosome gain, chromosome aberrations, Assay Code: DAGT, Evaluation Type: Evaluation A (Pre-1980)", "result": "no conclusion"}, {"measurement": "mutagenic call", "setting": "Species/Cell Type: Drosophila melanogaster, Assay Type: Aneuploidy, whole sex chromosome loss, chromosome aberrations, Assay Code: DAC-M, Evaluation Type: Evaluation A (Pre-1980)", "result": "inactive; negative"}, {"measurement": "mutagenic call", "setting": "Species/Cell Type: Human diploid fibroblasts, Assay Type: Unscheduled DNA synthesis (UDS) in vitro, DNA effects, Assay Code: UDH-, Evaluation Type: Evaluation A (Pre-1980)", "result": "inactive; negative"}, {"measurement": "mutagenic call", "setting": "Species/Cell Type: Saccharomyces cerevisiae, Assay Type: Mitotic recombination or gene conversion, Assay Code: YEC-, Evaluation Type: Evaluation A (Pre-1980)", "result": "inactive; negative"}, {"measurement": "mutagenic call", "setting": "Species/Cell Type: Saccharomyces cerevisiae, Assay Type: Mitotic recombination or gene conversion, Assay Code: YEH-, Evaluation Type: Evaluation A (Pre-1980)", "result": "inactive; negative"}, {"measurement": "mutagenic call", "setting": "[3]", "result": "no conclusion"}, {"measurement": "mutagenic call", "setting": "[1]", "result": "active; positive"}]}
